This is an account of results in US9447051B2, “Diaminopyrimidines and uses thereof” (AbbVie inc., priority 2012, dated 2016).

Series [1] deals with RSV (Group A, Long Strain). Description: Antiviral (RSV) assay: cytopathetic effect (CPE) protection assay in HEp-2 cells, MTT readout. The series is classed as cell-based, human respiratory syncytial virus (RSV). The conditions noted are these: human respiratory syncytial virus, HEp-2, 96 h. The protocol:
HEp-2 cells and RSV (Group A, Long Strain) were obtained from the American Type Culture Collection (Manassas, Va.). A cytopathetic effect (CPE) protection assay was performed to determine the ability of a compound to protect the cells from viral infection and thus the CPE induced by viral infection. 96-well plates were first seeded with 3×10^3 HEp-2 cells per well in Dulbecco's modified Eagle's medium (DMEM) containing 10% fetal bovine serum (FBS). One day after the cells were seeded, they were preincubated with serial dilutions of compounds prepared in 100 μL assay medium (DMEM mixed with F12 medium at a 1:1 ratio, supplemented with 2% FBS and 1 mM sodium pyruvate) for 1 hour at 37° C. 100 μL of assay medium containing 0.2 multiplicity of infection (MOI) of RSV was then added to each well of cells. In addition to wells containing infected cells incubated with compounds, each plate also contained replicates of two kinds of controls: (1) Virus control contained cells infected with 0.2 MOI of RSV in assay medium, (2) Uninfected cell control contained cells incubated with assay medium only. After 4 days of incubation at 37° C., the viability of cells was assessed using MTT (Thiazolyl blue tetrazolium bromide, Sigma). A stock solution of MTT, at a concentration of 4 mg/mL in phosphate-buffered saline, was added to all wells at 25 μL per well. Plates were further incubated for 4 hours, and each well was then treated with 50 μL of a solution containing 20% sodium dodecyl sulfate (SDS) and 0.02 N HCl. After an overnight incubation, the plates were measured on a BioTek® microtiter plate reader at wavelengths of 570 nm and 650 nm. The MTT detection is based on the fact that viable (uninfected) cells can reduce the tetrazolium salts into colored formazan products, which can then be quantitated by spectrometry. […] Compounds were tested to determine both their antiviral and toxicity to determine their therapeutic window. Determination of the EC50 and TD50 of these active compounds were repeated one additional time to confirm the window.

Series [2] deals with HEp-2 cells. Description: Cytotoxicity (MTT) assay. In kind it is cell-based. The conditions noted are these: Table 2; uninfected HEp-2 cells, 4 days incubation, 50% toxicity dose. The protocol:
A cytopathetic effect (CPE) protection assay was performed to determine the ability of a compound to protect the cells from viral infection and thus the CPE induced by viral infection. 96-well plates were first seeded with 3×10^3 HEp-2 cells per well in Dulbecco's modified Eagle's medium (DMEM) containing 10% fetal bovine serum (FBS). One day after the cells were seeded, they were preincubated with serial dilutions of compounds prepared in 100 μL assay medium (DMEM mixed with F12 medium at a 1:1 ratio, supplemented with 2% FBS and 1 mM sodium pyruvate) for 1 hour at 37° C. 100 μL of assay medium containing 0.2 multiplicity of infection (MOI) of RSV was then added to each well of cells. In addition to wells containing infected cells incubated with compounds, each plate also contained replicates of two kinds of controls: (1) Virus control contained cells infected with 0.2 MOI of RSV in assay medium, (2) Uninfected cell control contained cells incubated with assay medium only. After 4 days of incubation at 37° C., the viability of cells was assessed using MTT (Thiazolyl blue tetrazolium bromide, Sigma). A stock solution of MTT, at a concentration of 4 mg/mL in phosphate-buffered saline, was added to all wells at 25 μL per well. Plates were further incubated for 4 hours, and each well was then treated with 50 μL of a solution containing 20% sodium dodecyl sulfate (SDS) and 0.02 N HCl. After an overnight incubation, the plates were measured on a BioTek® microtiter plate reader at wavelengths of 570 nm and 650 nm. The MTT detection is based on the fact that viable (uninfected) cells can reduce the tetrazolium salts into colored formazan products, which can then be quantitated by spectrometry. Based on the spectrometric absorbance of each sample, the percent of protection from CPE, which is an indicator of protection from viral infection, can be calculated for each compound and the 50% effective concentrations (EC50) can be calculated using a nonlinear regression curve fitting equation provided by the GraphPad Prism® 4 software.
Cytotoxicity of the compounds was determined in experiments done in parallel with the antiviral assays. To do this, 100 μL of assay medium was added to the wells of HEp-2 cells pretreated with 100 μL serially diluted compounds as described above. After 4 days of incubation, the viability of the cells was determined by the MTT assay in the same way as detailed in the “Antiviral Assay” method. Results were expressed as 50% toxicity dose (TD50) values.
Compounds were tested to determine both their antiviral and toxicity to determine their therapeutic window. Determination of the EC50 and TD50 of these active compounds were repeated one additional time to confirm the window.

The mark [3] stands for this setting: Table 1, 0.2 MOI RSV, 4 days incubation, protection from CPE.
Setting [4] is: Table 2, 0.2 MOI RSV, 4 days, determination repeated to confirm window.

For orientation: EC50 means the concentration needed to bring the measured effect to its halfway point. Read a high EC50 as a less potent agent. Consider `Cc1nc(NCc2ccccn2)nc(NC2CCCCC2)c1C` [Example 1, N^4-cyclohexyl-5,6-dimethyl-N^2-(pyridin-2-ylmethyl)pyrimidine-2,4-diamine], for which the EC50 in series [1] (setting [3]) was found to be 250 nM; in series [1] (setting [4]), 150 nM. The “MTT TD50” value in series [2] was determined as 23.00 µM.
In the same order, the values of `Cc1cc(NC2CCCCCC2)nc(NCc2ccccn2)n1` [Example 3, N^4-cycloheptyl-6-methyl-N^2-(pyridin-2-ylmethyl)pyrimidine-2,4-diamine] are 2790 nM, 2790 nM and 8.04 µM.
On to `Cc1ccccc1CNc1nc(NCc2ccccn2)nc2c1CCC2` [Example 2, N^4-(2-methylbenzyl)-N^2-(pyridin-2-ylmethyl)-6,7-dihydro-5H-cyclopenta[d]pyrimidine-2,4-diamine], for which the EC50 in series [1] (setting [3]) and in series [1] (setting [4]) was 2050 nM in each case. In addition, in series [2], the “MTT TD50” value is 7.17 µM.
Molecule `Cc1nc(NCc2ccccn2)nc(N[C@H]2CC[C@H](O)CC2)c1C` [Example 79, trans-4-({5,6-dimethyl-2-[(pyridin-2-ylmethyl)amino]pyrimidin-4-yl}amino)cyclohexanol] gave an EC50 in series [1] (setting [3]) of 620 nM.
The same measure, in the same setting: as for `Cc1nc(N[C@@H](C)c2ccccc2)nc(NC2CCCCC2)c1C` [Example 16, N^4-cyclohexyl-5,6-dimethyl-N^2-[(1S)-1-phenylethyl]pyrimidine-2,4-diamine], the figure is greater than 3700 nM.
On the same count and under the same terms, the figure for `Cc1nc(NCc2ccccn2)nc(Nc2cccnc2)c1C` [Example 93, 5,6-dimethyl-N^4-(pyridin-3-yl)-N^2-(pyridin-2-ylmethyl)pyrimidine-2,4-diamine] is 930 nM.
Regarding `COc1cccc(CNc2nc(C)c(C)c(NC3CCCCC3)n2)c1` [Example 25, N^4-cyclohexyl-N^2-(3-methoxybenzyl)-5,6-dimethylpyrimidine-2,4-diamine], the EC50 in series [1] (setting [3]) was greater than 3400 nM.
The same measure, in the same setting: as for `Cc1nc(NCc2ccccn2)nc(Nc2ccc(F)cc2F)c1C` [Example 88, N^4-(2,4-difluorophenyl)-5,6-dimethyl-N^2-(pyridin-2-ylmethyl)pyrimidine-2,4-diamine], the figure is 38 nM.
Same read-out and setting: as for `COc1ccc(CNc2nc(C)c(C)c(NC3CCCCC3)n2)cc1` [Example 8, N^4-cyclohexyl-N^2-(4-methoxybenzyl)-5,6-dimethylpyrimidine-2,4-diamine], the figure is greater than 3700 nM; as for `Cc1nc(NCc2ccccn2)nc(Nc2ccc(F)c(F)c2)c1C` [Example 58, N^4-(3,4-difluorophenyl)-5,6-dimethyl-N^2-(pyridin-2-ylmethyl)pyrimidine-2,4-diamine], 63 nM.
Still for that read-out and setting: the figure for `Cc1nc(NCc2ccccn2)nc(NC2CCOc3ccccc32)c1C` (stereo not drawn) [Example 36, N^4-(3,4-dihydro-2H-chromen-4-yl)-5,6-dimethyl-N^2-(pyridin-2-ylmethyl)pyrimidine-2,4-diamine] is 530 nM; for `Cc1nc(NCc2ccccn2)nc(NC2Cc3ccccc3C2)c1C` [Example 46, N^4-(2,3-dihydro-1H-inden-2-yl)-5,6-dimethyl-N^2-(pyridin-2-ylmethyl)pyrimidine-2,4-diamine] it is 320 nM; for `Cc1nc(NCc2ccc(C(C)C)cc2)nc(NC2CCCCC2)c1C` [Example 11, N^4-cyclohexyl-N^2-(4-isopropylbenzyl)-5,6-dimethylpyrimidine-2,4-diamine] it is greater than 2000 nM.
`Cc1nc(NCc2ccccn2)nc(NCc2ccc(F)cc2)c1C` [Example 97, N^4-(4-fluorobenzyl)-5,6-dimethyl-N^2-(pyridin-2-ylmethyl)pyrimidine-2,4-diamine]: a half-maximal effect in series [1] (setting [3]) (EC50) was put at 140 nM.
The same measure, in the same setting: the figure for `Cc1cccnc1CNc1nc(C)c(C)c(NC2CCCCC2)n1` [Example 26, N^4-cyclohexyl-5,6-dimethyl-N^2-[(3-methylpyridin-2-yl)methyl]pyrimidine-2,4-diamine] is greater than 5800 nM; for `Cc1nc(NCc2ccccc2)nc(NC2CCCCC2)c1C` [Example 5, N^2-benzyl-N^4-cyclohexyl-5,6-dimethylpyrimidine-2,4-diamine] it is 240 nM; for `Cc1nc(NCc2ccccn2)nc(Nc2cccc(F)c2C)c1C` [Example 76, N^4-(3-fluoro-2-methylphenyl)-5,6-dimethyl-N^2-(pyridin-2-ylmethyl)pyrimidine-2,4-diamine] it is 25 nM.
Still for that read-out and setting: as for `Cc1nc(NCc2ccccn2)nc(NC2CCOCC2)c1C` [Example 30, 5,6-dimethyl-N^2-(pyridin-2-ylmethyl)-N^4-(tetrahydro-2H-pyran-4-yl)pyrimidine-2,4-diamine], the figure is 1100 nM.
Turning to `Cc1cc(NC2CCCCC2)nc(NCc2ccccn2)n1` [Example 4, N^4-cyclohexyl-6-methyl-N^2-(pyridin-2-ylmethyl)pyrimidine-2,4-diamine], the 50% effective concentration (EC50) in series [1] (setting [3]) and in series [1] (setting [4]) was 23500 nM in each case. Further, the “MTT TD50” value in series [2] was determined as 39.00 µM.
For the molecule `Cc1nc(NCc2cc(Cl)ccn2)nc(NC2CCCCC2)c1C` [Example 27, N^2-[(4-chloropyridin-2-yl)methyl]-N^4-cyclohexyl-5,6-dimethylpyrimidine-2,4-diamine], the EC50 in series [1] (setting [3]) stood at 42 nM.
In the case of `Cc1nc(NCc2c(C)noc2C)nc(NC2CCCCC2)c1C` [Example 23, N^4-cyclohexyl-N^2-[(3,5-dimethyl-1,2-oxazol-4-yl)methyl]-5,6-dimethylpyrimidine-2,4-diamine], the EC50 in series [1] (setting [3]) was greater than 10000 nM.
On the same count and under the same terms, as for `Cc1nc(NCc2ccccn2)nc(N(C)C2CCCCC2)c1C` [Example 77, N^4-cyclohexyl-N^4,5,6-trimethyl-N^2-(pyridin-2-ylmethyl)pyrimidine-2,4-diamine], the figure is 1200 nM.
On the same count and under the same terms, the figure for `Cc1nc(NCc2ccccn2)nc(Nc2ccccc2F)c1C` [Example 51, N^4-(2-fluorophenyl)-5,6-dimethyl-N^2-(pyridin-2-ylmethyl)pyrimidine-2,4-diamine] is 320 nM; for `Cc1nc(NCc2ccccn2)nc(NC2CCCCC2C)c1C` (stereo not drawn) [Example 40, 5,6-dimethyl-N^4-(2-methylcyclohexyl)-N^2-(pyridin-2-ylmethyl)pyrimidine-2,4-diamine] it is 65 nM; for `Cc1nc(NCc2ccccn2)nc(N[C@H]2CCCC[C@H]2CO)c1C` (racemic) [Example 43, rac-[(1R,2S)-2-({5,6-dimethyl-2-[(pyridin-2-ylmethyl)amino]pyrimidin-4-yl}amino)cyclohexyl]methanol] it is 190 nM.
